Data as given in US20050233413A1, “Neuroprotective polypeptides and methods of use” (priority 2002, published 2005).
Where no end group is shown, it is not given here.

Tests used:
[1] = tested on: V642I-APP, NL-APP, M146L-PS1, N141I-PS2 holoprotein expression in F11 cells; assay: Immunoblot analysis of transfected FAD gene expression; assay type: cell-based, rat/mouse hybrid; conditions: F11 cells treated with peptide
Procedure: Immunoblot analysis was performed as described. For the analysis of transfected FAD gene expression, lysates (20 μg/lane) from cells transfected with each FAD gene (V642I-APP, NL-APP, M146L-PS1, N141I-PS2) were submitted to SDS-PAGE and were electrically blotted to a PVDF sheet. After blocking, the sheet was soaked with antibodies [for APP mutants: 5 μg/ml 22C11 (CHEMICON, Temecula, Calif.); for PS1 mutant: 1/2000 of anti-PS1 N-terminus antibody (CHEMICON) for PS2 mutant: 1/500 of anti-PS2 antibody (Cell Signaling Technology, Beverly, Mass.)] and then with HRP-labeled secondary antibodies. The antigenic bands were visualized by ECL (Amersham Pharmacia Biotech, Uppsala, Sweden).

[2] = tested on: Aβ and four FAD genes (V642I-APP, NL-APP, M146L-PS1, and N141I-PS2); assay type: cell-based
Excerpt: (§1) F11 cells, the hybrid of a rat embryonic-day-13 primary cultured primary neuron and a mouse neuroblastoma cell, are one of the best models for primary cultured neurons as they carry representative characteristics of primary neurons, such as generation of action potentials without differentiation by NGF [22]. They have been used in various studies of is neuronal functions. Using these cells, the underlying mechanisms for cytotoxicity by V642I-APP have well been analyzed. Cytotoxicity by V642 mutants of APP has also been confirmed in multiple different systems. F11 cells were grown in Ham's F-12 (GibcoBRL, Gaithersburg, Md.) plus 18% fetal bovine serum (FBS; Hyclone, Logan, Utah) and antibiotics, as described previously. F11 cells (7×10^4 cell/well in a 6-well plate cultured in Ham's F-12 plus 18% FBS for 12-16 hr) were transfected with plasmids encoding FAD genes by lipofection [FAD cDNA 2 μg, LipofectAMINE 4 μl, PLUS reagent 8 μl (GibcoBRL)] in the absence of serum for 3 hr, and were incubated with Ham's F-12 plus 18% FBS for 2 hr. Then, culture media were changed to Ham's F-12 plus 10% FBS with or without HN peptides, and cells were cultured for an additional 67 hr. Seventy-two hr after transfection, cell mortality was measured by Trypan blue exclusion assay, performed as follows. Cells were suspended by pipetting gently, and 50 μl of 0.4% (finally 0.08%) Trypan blue solution (Sigma, St Louis, Mo.) was mixed with 200 μl of the cell suspension at room temperature. Stained cells were counted within 3 min after the mixture with Trypan blue solution.
(§2) The primary culture of mouse cortical neurons was performed in poly-L-lysine-coated 24-well plates or 96-well plates (Sumitomo Bakelite, Akita, Japan), in the absence of serum and the presence of N2 supplement, as described previously. The purity of neurons by this method was >98%. Prepared neurons (for neurons seeded in 96-well plates: 2.5×10^4 or 5×10^4 cells/well, 100 μl culture medium/well; for neurons seeded in 24-well plates: 1.25×10^5 cells/well, 250 μl culture medium/well) were preincubated with or without 10 μM (in case for the experiment with 10 μM HN) synthetic HN for 16 hr, and treated with 25 μM Aβ in the presence or absence of 10 μM HN for 72 hr, respectively. As primary neurons were vulnerable to transient dryness during medium exchange, we treated neurons with 25 μM Aβ as follows. First, a half volume (50 μl for neurons in 96-well plates; 125 μl for neurons in 24-well plates) of old medium was discarded. Then, the same volume (50 μl for neurons in 96-well plates; 125 μl for neurons in 24-well plates) of prewarned fresh medium containing 10 μM HN and 50 μM Aβ (Aβ was directly resolved) was added to the culture. The Aβ peptides used at 25 μM to induce neurotoxicity formed aggregation in the medium during the cell culture at 37° C. for 72 hr. as described. The WST-8 cell viability assay was performed, using Cell Counting Kit-8 (Wako Pure Chemical Industries, Osaka, Japan), as described previously.
(§3) Calcein assay was performed with Calcein-AM {3′,6′-di-(O-acetyl)-2′,7′-bis [N,N-bis(carboxymethyl)aminomethyl] fluorescein, tetraacetoxymethyl ester; Dojindo}, as described previously. These assays were simultaneously performed in the experiments with neurons seeded in 96-well plates, as follows. Seventy-two hours after Aβ treatment, cells were added with the mixture of 10 μl WST-8 solution and 1 μl of 600 μM Calcein-AM. After 2 hr incubation in a CO2 incubator at 37° C., WST-8 absorbance was measured as OD450. After exchanging the medium to PBS to lower the background, Calcein-specific fluorescence (ex=485 nm, em=535 nm) was observed by fluorescence microscopy or measured by a spectrofluorometer (Wallac1420 ARVOsx Multi Label Counter). […]

[3] = tested on: Aβ and four FAD genes (V642I-APP, NL-APP, M146L-PS1, and N141I-PS2); conditions: cited from earlier work
HN (self-dimerization) [4] = target: T1, HN (self-dimerization) (Homo sapiens, UniProt Q8IVG9); assay: Dimerization experiment (Ni-bead precipitation of FLAG-tagged peptide by (His)6-tagged peptide); assay type: binding; conditions: excess amounts of competitor
T1 construct: host or cells: chemically synthesised peptide (no expression host)
Procedure: (§4) Synthetic (His)6-tagged HN derivative peptides (1 nmol) was incubated with 20 μl of Ni-NTA agarose (QIAGEN, Hilden, Germany) in a total volume of 0.5 ml of buffer A [20 mM Tris/HCl (pH8.0) and 1 mM DTT] for 1 hr at 4° C. and washed once with buffer B [20 mM Tris/HCl (pH 7.4), 1 mM DTT, and 150 mM NaCl]. Synthetic FLAG-tagged peptides (1 nmol) were mixed with the beads immobilizing (His)6-tagged peptides in a total volume of 0.5 ml of buffer B for 2 hr at 4° C. on a rotating shaker, and washed three times with buffer B. The washed beads were mixed with 20 μl of 2× sampling buffer [100 mM Tris/HCl (pH6.8), 200 mM DTT, 4% (w/v) SDS, 0.2% bromophenol blue, and 20% (v/v) glycerol] and boiled. The supernatant was submitted to Tris/Tricine SDS-PAGE, followed by immunoblotting analysis with 1/5000 anti-FLAG monoclonal antibody M2 (Sigma).

HN (self-dimerization) [5] = assay: as above; assay type: binding; conditions: Ni-bead precipitation, anti-FLAG immunoblot
Procedure: as §4

Aβ and V642I-APP = assay type: cell-based; conditions: Table 5, marked **
Excerpt: as §1, §2, §3

[6] = tested on: primary cultured neurons treated with 25 μM Aβ1-43; assay type: cell-based
Procedure: (§5) In one assay, transfection with V642I-APP causes cell death in F11 neuronal hybrid cells. In the other, treatment with Aβ peptides causes cell death in primary cultured cortical neurons.
as §2
Calcein assay was performed with Calcein-AM {3′,6′-di-(O-acetyl)-2′,7′-bis [N,N-bis(carboxymethyl)aminomethyl] fluorescein, tetraacetoxymethyl ester; Dojindo}, as described previously. These assays were simultaneously performed in the experiments with neurons seeded in 96-well plates, as follows. Seventy-two hours after Aβ treatment, cells were added with the mixture of 10 μl WST-8 solution and 1 μl of 600 μM Calcein-AM. After 2 hr incubation in a CO2 incubator at 37° C., WST-8 absorbance was measured as OD450. After exchanging the medium to PBS to lower the background, Calcein-specific fluorescence (ex=485 nm, em=535 nm) was observed by fluorescence microscopy or measured by a spectrofluorometer (Wallac1420 ARVOsx Multi Label Counter). Most cell viability data using Calcein assay and WST-8 assay were obtained from neurons seeded at 5×10^4 cells/well in 96-well plates (high-density neurons) and confirmed by both assays with the cells seeded at 2.5×10^4 cells/well (low-density neurons).
Some experiments for Calcein assay were performed with neurons seeded in 24-well plates. […] In most experiments using primary neurons, four independent experiments were performed and the means? S. D. of the results were discussed.

[7] = Apparent stability of peptides in the culture medium; assay type: physicochemical; conditions: 72-hr incubation of 10 μM peptides in the cultured medium; data not shown
Excerpt: The Ser^7 residue plays a role different from that of Ser^14. S7A substitution nullified the action of HN, while Ser^7 racemation had no influence. […] Given the fact that EFLIVIKS or EFLIVKS is the established amino acid sequence to form a dimer and that EFLIVIKS alone had no cytoprotective action, it is most likely that Ser^7 is essential for HN to self-dimerize and that self-dimerization of HN is essential for the action of HN. […] This level of stability alterations could not account for the drastic potentiation of the rescue action by the fusion with EFLIVIKS.

[8] = tested on: F11 cells transfected with V642I-APP cDNA; assay: F11 cell death by V642I-APP transfection (Trypan blue exclusion); assay type: cell-based
Excerpt: as §5, §1

HN (self-dimerization) [9] = target: T2, HN (self-dimerization) (Homo sapiens, UniProt Q8IVG9, S7A); assay: Dimerization experiment (Ni-bead precipitation of FLAG-tagged peptide by (His)6-tagged peptide); assay type: binding; conditions: excess amounts of competitor
T2 construct: host or cells: chemically synthesised peptide (no expression host)
T2 sequence (Q8IVG9 with tags, fused parts or gaps S7A): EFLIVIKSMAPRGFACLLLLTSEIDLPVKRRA
Procedure: as §4

[10] = tested on: F11 cells transfected with V642I-APP, NL-APP, M146L-PS1 or N141I-PS2 cDNA; assay type: cell-based, rat/mouse hybrid; conditions: V642I-APP
Excerpt: as §1

T1 sequence (Q8IVG9 whole entry): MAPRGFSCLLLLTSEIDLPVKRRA

MAPAGASCLLLLTGEIDLPVKRRA [AGA-HNG, reference compound]
CMV-promoter-driven expression of V642I-APP, NL-APP, M146L-PS1, or N141I-PS2 holoprotein [1]: little or only marginal alteration | concentration of full cytoprotection [2]: 100 to 300 pM | Full protection (minimal concentration that exerted full cytoprotection) ([2]; Table 5, marked *): 100 to 300 pM | augmentation of the potency of HNG by Ala substitution at both Arg4 and Phe6 ([3]; previously reported [16]): 3-10 times | concentration of full neuroprotection ([3]; previously reported [16]): 100 to 300 pM

YMAPRGFSCLLLLTGEIDLPVKKKK [HNG-KKK, HNG with its C-terminal KRRA substituted to KKKK]
effect of excess competitor on HN-FLAG precipitation by (His)6-HN (HN (self-dimerization) [4]): no effect | self-dimerization / complex formation (in words) (HN (self-dimerization) [5]): little activity to form a complex with HN | Full protection (Aβ and V642I-APP): NE** (the corresponding peptide had no cytoprotective effect at 10 μM) | IC50 (Aβ and V642I-APP): > 10000 nM | concentration up to which no neuroprotection against Aβ1-43 was exerted ([6]; 25 μM Aβ1-43, primary neurons): > 10 µM | neuroprotective action against Aβ1-43 (in words) ([6]; 25 μM Aβ1-43, primary neurons): lost the neuroprotective action

EFLIVIKSMAPRGFACLLLLTSEIDLPVKRRA [EF-(S7A)HN]
self-dimerization / complex formation (in words) (HN (self-dimerization) [5]): self-dimerizes through the EFLIVIKS region | Full protection (minimal concentration that exerted full cytoprotection) (Aβ and V642I-APP): ˜100 nM | amount of peptide relative to the amount at time zero [7]: virtually unaltered | IC50 [6]: ~10 nM | concentration of full neuroprotection against Aβ1-43 ([6]; 25 μM Aβ1-43): 100 nM | suppression of Aβ neurotoxicity in the presence of 100 μM EFLIVIKS ([6]; 25 μM Aβ1-43, EF-HN and EF-HNG at 10 μM, WST-8 and Calcein assays): could not suppress Aβ neurotoxicity at all | IC50 [8]: 1 nM | concentration of full cytoprotection / complete suppression against V642I-APP ([8]; F11 cells): 100 nM | potency of cytoprotection against V642I-APP relative to HN ([8]; times higher than that of HN): about 100 times

EFLIVIKS [dimerization peptide, reference compound]
effect of excess competitor on EF-(S7A)HN-FLAG precipitation by (His)6-EF-(S7A)HN (HN (self-dimerization) [9]): blocked | effect of excess competitor on HN-FLAG precipitation by (His)6-HN (HN (self-dimerization) [4]): could not interfere | Full protection (Aβ and V642I-APP): NE** (the corresponding peptide had no cytoprotective effect at 10 μM) | IC50 (Aβ and V642I-APP): > 10000 nM | concentration up to which no neuroprotection against Aβ1-43 was exerted ([6]; 25 μM Aβ1-43, primary neurons): > 100 µM

PRGFSCLLLLTSEIDLP [HN17, Pro3-Pro19 region of HN]
cytoprotection potency compared with authentic HN (in words) ([3]; as disclosed in [16]): as potent in cytoprotection as authentic HN

MAPRGFACLLLLTSEIDLPVKRRA [S7A HN]
cytoprotective action against FAD genes (in words) [10]: no effect | effect of excess competitor on EF-(S7A)HN-FLAG precipitation by (His)6-EF-(S7A)HN (HN (self-dimerization) [9]): not | self-dimerization / complex formation (in words) (HN (self-dimerization) [5]): little activity for self-dimerization | Full protection ([2]; Table 5, marked *): NE* (the corresponding peptide had no cytoprotective effect at 10 μM) | IC50 ([2]; Table 5, marked *, read-out: IC50): > 10000 nM | amount of peptide relative to the amount at time zero [7]: about ⅔ | concentration up to which no neuroprotection against Aβ1-43 was exerted ([6]; 25 μM Aβ1-43, primary neurons): > 10 µM | concentration up to which no cytoprotection against V642I-APP was exerted ([8]; F11 cells): > 10 µM
